Data on eleven molecules can be found in ChEMBL document CHEMBL4433250, “Structure-based design of potent linear peptide inhibitors of the YAP-TEAD protein-protein interaction derived from the YAP omega-loop sequence” (Bioorg Med Chem Lett, 2019).

Activity calls are given as the source filed them. No cut-off for these calls is given here. Where a SMILES comes first, the peptide text is derived from it. [ ]: non-standard residue; d: D form. Trp(6-Cl) = N[C@@H](Cc1c[nH]c2cc(Cl)ccc12)C(=O)O; Phe(3-F) = N[C@@H](Cc1cccc(F)c1)C(=O)O; 1Nal = N[C@@H](Cc1cccc2ccccc12)C(=O)O; Hyp = O=C(O)[C@@H]1C[C@@H](O)CN1; Cba = N[C@@H](CC1CCC1)C(=O)O; Nle = CCCC[C@H](N)C(=O)O; Ac3c = NC1(C(=O)O)CC1

The IC50 is the concentration that inhibits the measured activity by half. As usually defined, the Kd is the constant that tells how readily two partners part at equilibrium.

The target in assay [1] is T1, Transcriptional enhancer factor TEF-3 (Homo sapiens, UniProt Q15561). Briefly: Inhibition of human TEAD4 (217 to 434 residues) expressed in Escherichia coli BL21 (DE3) interaction with N-biotinylated YAP (60 to 100 residues) incubated for 2 hrs by TR-FRET assay.
T1 sequence (Q15561 whole entry, the tested form may be a part): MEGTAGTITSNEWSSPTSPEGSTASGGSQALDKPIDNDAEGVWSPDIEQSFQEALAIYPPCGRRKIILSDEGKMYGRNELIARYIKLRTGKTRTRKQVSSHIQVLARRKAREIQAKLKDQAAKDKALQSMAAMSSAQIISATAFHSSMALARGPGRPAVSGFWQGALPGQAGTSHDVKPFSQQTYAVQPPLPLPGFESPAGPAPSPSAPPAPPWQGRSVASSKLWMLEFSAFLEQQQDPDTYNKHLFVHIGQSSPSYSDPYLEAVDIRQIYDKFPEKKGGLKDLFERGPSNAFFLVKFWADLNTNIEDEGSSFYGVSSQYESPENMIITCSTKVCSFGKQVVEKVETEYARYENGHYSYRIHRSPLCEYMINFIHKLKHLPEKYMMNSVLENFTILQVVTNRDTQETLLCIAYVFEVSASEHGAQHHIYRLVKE
Assay [2] addresses T1, Transcriptional enhancer factor TEF-3. Briefly: Binding affinity to Avi-tagged human TEAD4 (217 to 434 residues) expressed in Escherichia coli BL21 (DE3) by SPR assay. (In general: Surface plasmon resonance follows binding to a sensor surface in real time, without labels.)
The target is the same in assay [3]. The assay is described as follows: Inhibition of TEAD4 in human SF268 ::MCAT-Luc RGA model cells up to 20 uM by YAP/TEAD-dependent luciferase reporter gene assay.

`CC(C)C[C@H](NC(=O)[C@H](CCCNC(=N)N)NC(=O)[C@H](Cc1c[nH]c2cc(Cl)ccc12)NC(=O)[C@@H]1CCCN1)C(=O)N[C@@H](CCCNC(=N)N)C(=O)N[C@@H](CCCCN)C(=O)N[C@@H](CC1CCC1)C(=O)N1C[C@H](O)C[C@H]1C(=O)N[C@@H](CC(=O)O)C(=O)N[C@@H](CO)C(=O)N[C@@H](Cc1ccccc1)C(=O)N[C@@H](Cc1cccc2ccccc12)C(=O)N[C@@H](CCCCN)C(=O)N[C@@H](CCC(=O)O)C(=O)N1CCC[C@H]1C(=O)O` (H-P[Trp(6-Cl)]RLRK[Cba][Hyp]DSF[1Nal]KEP-OH): in assay [1], the IC50 worked out at 0.016 µM. In addition, the Kd in assay [2] is 0.025 µM. In addition, the inhibition result in assay [3] is “inactive”.

`CCCC[C@H](NC(=O)[C@@H]1CCCN1)C(=O)N[C@@H](CCCNC(=N)N)C(=O)N[C@@H](CC(C)C)C(=O)N[C@@H](CCCNC(=N)N)C(=O)N[C@@H](CCCCN)C(=O)N[C@@H](CC(C)C)C(=O)N1CCC[C@H]1C(=O)N[C@@H](CC(=O)O)C(=O)N[C@@H](CO)C(=O)N[C@@H](Cc1ccccc1)C(=O)N[C@@H](Cc1ccccc1)C(=O)N[C@@H](CCCCN)C(=O)N1CCC[C@H]1C(=O)N1CCC[C@H]1C(=O)O` (H-P[Nle]RLRKLPDSFFKPP-OH): the IC50 in assay [1] stood at 67.7 µM.

`CC(C)C[C@H](NC(=O)[C@H](CCCNC(=N)N)NC(=O)[C@H](Cc1c[nH]c2cc(Cl)ccc12)NC(=O)[C@@H]1CCCN1)C(=O)N[C@@H](CCCNC(=N)N)C(=O)N[C@@H](CCCCN)C(=O)N[C@@H](CC(C)C)C(=O)N1CCC[C@H]1C(=O)N[C@@H](CC(=O)O)C(=O)N[C@@H](CO)C(=O)N[C@@H](Cc1ccccc1)C(=O)N[C@@H](Cc1ccccc1)C(=O)N[C@@H](CCCCN)C(=O)N1CCC[C@H]1C(=O)N1CCC[C@H]1C(=O)O` (H-P[Trp(6-Cl)]RLRKLPDSFFKPP-OH): the half-maximal inhibitory concentration (IC50) in assay [1] worked out at 5.83 µM.

With `N=C(N)NCCC[C@H](NC(=O)[C@H](Cc1c[nH]c2cc(Cl)ccc12)NC(=O)[C@@H]1CCCN1)C(=O)NC1(C(=O)N[C@@H](CCCNC(=N)N)C(=O)N[C@@H](CCCCN)C(=O)N[C@@H](CC2CCC2)C(=O)N2C[C@H](O)C[C@H]2C(=O)N[C@@H](CC(=O)O)C(=O)N[C@@H](CO)C(=O)N[C@@H](Cc2ccccc2)C(=O)N[C@@H](Cc2cccc3ccccc23)C(=O)N[C@@H](CCCCN)C(=O)N[C@@H](CCC(=O)O)C(=O)N2CCC[C@H]2C(=O)O)CC1` (H-P[Trp(6-Cl)]R[Ac3c]RK[Cba][Hyp]DSF[1Nal]KEP-OH), the IC50 in assay [1] amounted to 0.009 µM.

For the molecule H-PWRLRKLPDSFFKPP-OH, the IC50 in assay [1] stood at 24.2 µM.

For the molecule `CC(C)C[C@H](NC(=O)[C@H](CCCNC(=N)N)NC(=O)[C@H](Cc1c[nH]c2cc(Cl)ccc12)NC(=O)[C@@H]1CCCN1)C(=O)N[C@@H](CCCNC(=N)N)C(=O)N[C@@H](CCCCN)C(=O)N[C@@H](CC1CCC1)C(=O)N1CCC[C@H]1C(=O)N[C@@H](CC(=O)O)C(=O)N[C@@H](CO)C(=O)N[C@@H](Cc1ccccc1)C(=O)N[C@@H](Cc1cccc2ccccc12)C(=O)N[C@@H](CCCCN)C(=O)N[C@@H](CCC(=O)O)C(=O)N1CCC[C@H]1C(=O)O` (H-P[Trp(6-Cl)]RLRK[Cba]PDSF[1Nal]KEP-OH), in assay [1], the half-maximal inhibitory concentration (IC50) stood at 0.045 µM.

As for `CCCC[C@H](NC(=O)[C@H](CCCCN)NC(=O)[C@H](CCCNC(=N)N)NC(=O)[C@H](CC(C)C)NC(=O)[C@H](CCCNC(=N)N)NC(=O)[C@H](Cc1c[nH]c2cc(Cl)ccc12)NC(=O)[C@@H]1CCCN1)C(=O)N1CCC[C@H]1C(=O)N[C@@H](CC(=O)O)C(=O)N[C@@H](CO)C(=O)N[C@@H](Cc1ccccc1)C(=O)N[C@@H](Cc1ccccc1)C(=O)N[C@@H](CCCCN)C(=O)N1CCC[C@H]1C(=O)N1CCC[C@H]1C(=O)O` (H-P[Trp(6-Cl)]RLRK[Nle]PDSFFKPP-OH), the IC50 in assay [1] turned out to be 1.56 µM.

Regarding `CCCC[C@H](NC(=O)[C@H](CCCCN)NC(=O)[C@H](CCCNC(=N)N)NC(=O)[C@H](CC(C)C)NC(=O)[C@H](CCCNC(=N)N)NC(=O)[C@H](Cc1c[nH]c2cc(Cl)ccc12)NC(=O)[C@@H]1CCCN1)C(=O)N1CCC[C@H]1C(=O)N[C@@H](CC(=O)O)C(=O)N[C@@H](CO)C(=O)N[C@@H](Cc1cccc(F)c1)C(=O)N[C@@H](Cc1ccccc1)C(=O)N[C@@H](CCCCN)C(=O)N1CCC[C@H]1C(=O)N1CCC[C@H]1C(=O)O` (H-P[Trp(6-Cl)]RLRK[Nle]PDS[Phe(3-F)]FKPP-OH), in assay [1], the IC50 turned out to be 2.4 µM.

As for H-PMRLRKLPDSFFKPP-OH, the IC50 in assay [1] was found to be 70 µM.

Take `CCCC[C@H](NC(=O)[C@H](CCCCN)NC(=O)[C@H](CCCNC(=N)N)NC(=O)[C@H](CC(C)C)NC(=O)[C@H](CCCNC(=N)N)NC(=O)[C@H](Cc1c[nH]c2cc(Cl)ccc12)NC(=O)[C@@H]1CCCN1)C(=O)N1CCC[C@H]1C(=O)N[C@@H](CC(=O)O)C(=O)N[C@@H](CO)C(=O)N[C@@H](Cc1ccccc1)C(=O)N[C@@H](Cc1cccc2ccccc12)C(=O)N[C@@H](CCCCN)C(=O)N1CCC[C@H]1C(=O)N1CCC[C@H]1C(=O)O` (H-P[Trp(6-Cl)]RLRK[Nle]PDSF[1Nal]KPP-OH): the IC50 in assay [1] is 0.409 µM.

With `CC(C)C[C@H](NC(=O)[C@H](CCCNC(=N)N)NC(=O)[C@H](Cc1c[nH]c2cc(Cl)ccc12)NC(=O)[C@@H]1CCCN1)C(=O)N[C@@H](CCCNC(=N)N)C(=O)N[C@@H](CCCCN)C(=O)N[C@@H](CC1CCC1)C(=O)N1CCC[C@H]1C(=O)N[C@@H](CC(=O)O)C(=O)N[C@@H](CO)C(=O)N[C@@H](Cc1ccccc1)C(=O)N[C@@H](Cc1cccc2ccccc12)C(=O)N[C@@H](CCCCN)C(=O)N1CCC[C@H]1C(=O)N1CCC[C@H]1C(=O)O` (H-P[Trp(6-Cl)]RLRK[Cba]PDSF[1Nal]KPP-OH), in assay [1], the IC50 amounted to 0.216 µM.
